The first experiment addresses T1, Calcitonin gene-related peptide type 1 receptor (Homo sapiens, UniProt O60894+Q16602). Description: Displacement of [125I]hCGRP from human cloned CGRP receptor expressed in HEK293 cells. Format: cell-based.
T1 sequence (Q16602 whole entry, one chain of several): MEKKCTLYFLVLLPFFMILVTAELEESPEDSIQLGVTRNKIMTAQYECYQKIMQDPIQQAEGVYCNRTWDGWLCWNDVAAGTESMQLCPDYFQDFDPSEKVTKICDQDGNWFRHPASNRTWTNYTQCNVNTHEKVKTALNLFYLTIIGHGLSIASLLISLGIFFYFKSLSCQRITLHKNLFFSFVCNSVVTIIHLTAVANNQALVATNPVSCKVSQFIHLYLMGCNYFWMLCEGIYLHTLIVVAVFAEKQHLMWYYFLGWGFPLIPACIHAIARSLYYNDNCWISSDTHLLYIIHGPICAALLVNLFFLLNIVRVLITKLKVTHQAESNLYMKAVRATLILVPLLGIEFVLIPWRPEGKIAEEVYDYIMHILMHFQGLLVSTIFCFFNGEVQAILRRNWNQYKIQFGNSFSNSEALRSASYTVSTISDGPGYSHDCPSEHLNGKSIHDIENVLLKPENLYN
Usually Ki stands for the equilibrium dissociation constant of an inhibitor or competing ligand from its target. `C[C@@H](c1ccccc1)N(CC(=O)Nc1ccc2c(c1)C[C@@]1(C2)C(=O)NC(=O)N1C)C(=O)C(C)(C)C`: the inhibitory constant (Ki) was found to be 56 nM.

Take `CN1C(=O)NC(=O)[C@@]12Cc1ccc(NC(=O)CN(Cc3cc(F)cc(F)c3)C(=O)C(C)(C)C)cc1C2`: the inhibition constant (Ki) is 0.55 nM. On to `CN1C(=O)NC(=O)[C@@]12Cc1ccc(NC(=O)CN(Cc3cc(Cl)cc(Cl)c3)C(=O)C(C)(C)C)cc1C2`, for which the inhibition constant (Ki) was found to be 4.4 nM. For `C[C@H](c1cc(F)cc(F)c1)N(CC(=O)Nc1ccc2c(c1)C[C@@]1(C2)C(=O)NC(=O)N1C)C(=O)C(C)(C)C`, the Ki came out at 0.26 nM. On the same count and under the same terms, then `NCC12CC(=O)Nc3cccc(c31)N(Cc1ccc3cc4c(cc3n1)C[C@]1(C4)C(=O)Nc3ncccc31)C2=O` (stereo partly drawn), with 0.13 nM; and `CN1C(=O)NC(=O)[C@@]12Cc1ccc(NC(=O)CN(Cc3cc(F)cc(Cl)c3)C(=O)C(C)(C)C)cc1C2`, with 1.2 nM. Regarding `C[C@H](c1ccccc1)N(CC(=O)Nc1ccc2c(c1)C[C@@]1(C2)C(=O)NC(=O)N1C)C(=O)C(C)(C)C`, the Ki was 0.83 nM.

As for `CC1(C)CC[C@@H](c2c(F)cccc2F)N(CC(=O)Nc2ccc3c(c2)C[C@]2(C3)C(=O)Nc3ncccc32)C1=O`, the Ki is 0.035 nM. In the case of `CN1C(=O)NC(=O)C12Cc1ccc(NC(=O)CN(Cc3cccc(Cl)c3)C(=O)C(C)(C)C)cc1C2` (racemic), the inhibitory constant (Ki) amounted to 1.8 nM. In the case of `Cc1cccc(CN(CC(=O)Nc2ccc3c(c2)CC2(C3)C(=O)NC(=O)N2C)C(=O)C(C)(C)C)c1` (racemic), the inhibitory constant (Ki) worked out at 7.9 nM.

Consider `CN1C(=O)NC(=O)C12Cc1ccc(NC(=O)CN(Cc3ccc(F)cc3)C(=O)C(C)(C)C)cc1C2` (racemic), for which the Ki came out at 3.7 nM. As for `COc1cccc(CN(CC(=O)Nc2ccc3c(c2)CC2(C3)C(=O)NC(=O)N2C)C(=O)C(C)(C)C)c1` (racemic), the inhibitory constant (Ki) came to 45 nM. `CN1C(=O)NC(=O)C12Cc1ccc(NC(=O)CN(Cc3ccccc3F)C(=O)C(C)(C)C)cc1C2` (racemic): the Ki is 14 nM. In the case of `CN1C(=O)NC(=O)C12Cc1ccc(NC(=O)CN(Cc3cccc(F)c3)C(=O)C(C)(C)C)cc1C2` (racemic), the Ki was found to be 1.6 nM. As to `CN1C(=O)NC(=O)C12Cc1ccc(NC(=O)CN(Cc3cccc(C#N)c3)C(=O)C(C)(C)C)cc1C2` (racemic), the Ki amounted to 23 nM.

Take `CN1C(=O)NC(=O)C12Cc1ccc(NC(=O)CN(Cc3ccc(C(F)(F)F)cc3)C(=O)C(C)(C)C)cc1C2` (racemic): the Ki is 25 nM.

The target in the next experiment is T1, Calcitonin gene-related peptide type 1 receptor. Description: Antagonist activity at human cloned CGRP receptor expressed in HEK293 cells assessed as inhibition of CGRP-induced cAMP production. Format: functional, cell-based.
Usually IC50 stands for the concentration that inhibits the measured activity by half. Take `NCC12CC(=O)Nc3cccc(c31)N(Cc1ccc3cc4c(cc3n1)C[C@]1(C4)C(=O)Nc3ncccc31)C2=O` (stereo partly drawn): the concentration for half-maximal inhibition (IC50) worked out at 0.62 nM. As to `CC1(C)CC[C@@H](c2c(F)cccc2F)N(CC(=O)Nc2ccc3c(c2)C[C@]2(C3)C(=O)Nc3ncccc32)C1=O`, the half-inhibitory concentration (IC50) worked out at 0.12 nM.

Values taken from ChEMBL document CHEMBL1156010, “Novel CGRP receptor antagonists through a design strategy of target simplification with addition of molecular flexibility” (Bioorg Med Chem Lett, 2009).
